Values of other authors, collected in patent publication US20040005368A1, “Novel approach to weight loss comprising a modified protein composition that regulates blood sugar in conjunction with compositions that increase oxygen uptake and suppress appetite” (priority 2002, published 2004).

Settings: group of animals

SMILES | loss in body fat [%] | loss in body weight
CN[C@@H](C)[C@H](O)c1ccccc1 [ephedrine] | 42 | 14%
Cn1c(=O)c2c(ncn2C)n(C)c1=O [caffeine] | – | no significant loss in body weight
